Here are results for nine compounds from US20080004276A1, “Method for treating non-hodgkin's lymphoma” (priority 2006, published 2008).

One series relates to Daudi. Put plainly: Daudi non-Hodgkin's lymphoma SCID mouse xenograft. It is filed as in vivo. Particulars: 25 mg/kg i.v., 5 times per week, 15 doses. As to the method:
FBS was obtained from ATCC and all other reagents were obtained from Invitrogen Corp. (Carlsbad, Calif., USA). Cells that had been cryopreserved in liquid nitrogen were rapidly thawed at 37° C. and transferred to a tissue culture flask containing growth media and then incubated at 37° C. in a 5% CO2 incubator. To expand the cell line, cultures were passaged 1:2 to a density of 5×10(6) cells/ml every three days by adding an equal volume of fresh growth media. When the flasks reached a density of approximately 10×10(6) cells/ml, the above passaging process was repeated until sufficient cells had been obtained for implantation into mice.
(§1) Seven to eight week old, female CB17/Icr-Prkdc^scid/Crl (SCID) mice were obtained from Charles River Laboratories (Wilmington, Mass., USA). Animals were housed 4-5/cage in micro-isolators, with a 12 hr/12 hr light/dark cycle, acclimated for at least 1 week prior to use and fed normal laboratory chow ad libitum. Studies were conducted on animals that were between 8 and 12 weeks of age at the time of tumor cell implantation. […] Using a 27 gauge needle and 1 cc syringe, 0.1 ml of the cell suspension was injected subcutaneously into the shaved flanks of SCID mice. To implant SU-DHL-4 tumor cells into SCID mice, cell cultures were centrifuged to pellet the cells, the supernatant was aspirated and the cell pellet was resuspended in 10 ml of growth media and the cell number determined using a hemocytometer, washed in PBS and resuspended at a concentration of 10×10(7) cells/ml in 50% PBS and 50% Matrigel Basement Membrane Matrix (#354234; BD Biosciences; Bedford, Mass., USA). Using a 27 gauge needle and 1 cc syringe, 0.1 ml of the cell suspension was injected subcutaneously into the shaved flanks of SCID mice.
Tumors were then permitted to develop in vivo until the majority reached 100-200 mm^3 in tumor volume, which typically required 2-3 weeks following implantation. […] Tumor volumes (V) were calculated by caliper measurement of the width (W), length (L) and thickness (T) of tumors using the following formula: V=0.5236×(L×W×T). […]

A further series relates to SU-DHL-4. Put plainly: SU-DHL-4 non-Hodgkin's lymphoma SCID mouse xenograft. It is filed as in vivo. Particulars: for % T/C value: FIG. 6. The method, then: The human non-Hodgkin's lymphoma tumor cell line, SU-DHL-4 (DSMZ #ACC 495), sub-classified as a GCB-type diffuse large B-cell lymphoma, was obtained from Deutsche Sammlung von Mikroorganismen und Zellkulturen GmbH (DSMZ; Braunschweig, Germany). […] FBS was obtained from ATCC and all other reagents were obtained from Invitrogen Corp. (Carlsbad, Calif., USA). Approximately 3-4×10(7) cells that had been cryopreserved in liquid nitrogen were rapidly thawed at 37° C. and transferred to a 175 cm^2 tissue culture flask containing 50 ml of growth media and then incubated at 37° C. in a 5% CO2 incubator. To passage and expand the cell line, the contents of a flask were centrifuged to pellet the cells, the supernatant was aspirated and the cell pellet was resuspended in 10 ml of growth media and the cell number determined using a hemocytometer. Approximately 3-4×10(7) cells per flask were seeded into 175 cm^2 flasks containing 50 ml of growth media and incubated at 37° C. in a 5% CO2 incubator. The above passaging process was repeated every 2-3 days until sufficient cells had been obtained for implantation into mice.
as §1
Tumors were then permitted to develop in vivo until the majority reached 100-200 mm^3 in tumor volume, which typically required 2-3 weeks following implantation. […] Tumor volumes (V) were calculated by caliper measurement of the width (W), length (L) and thickness (T) of tumors using the following formula: V=0.5236×(L×W×T). Animals were randomized into treatment groups so that the median tumor volumes of each group were similar at the start of dosing. % T/C values, as a measure of efficacy, were determined as follows: • (i) If ΔT>0: % T/C=(ΔT/ΔC)×100 • (ii) If ΔT<0: % T/C=(ΔT/T0)×100 • (iii) ΔT=Change in median tumor volume between start of dosing and the end of study. • (iv) ΔC=Change in median tumor volume between start of dosing and the end of study. • (v) T0=Median tumor volume at start of dosing.
To formulate Compound #226 in DRD, stock solutions of the test article were prepared by dissolving the appropriate amounts of the compound in dimethyl sulfoxide (DMSO) by sonication in an ultrasonic water bath. Stock solutions were prepared weekly, stored at −20° C. and diluted fresh each day for dosing. A solution of 20% Cremophore RH40 (polyoxyl 40 hydrogenated castor oil; BASF Corp., Aktiengesellschaft, Ludwigshafen, Germany) in 5% dextrose in water (Abbott Laboratories, North Chicago, Ill., USA) was also prepared by first heating 100% Cremophore RH40 at 50-60° C. until liquefied and clear, diluting 1:5 with 100% D5W, reheating again until clear and then mixing well. This solution was stored at room temperature for up to 3 months prior to use. To prepare DRD formulations for daily dosing, DMSO stock solutions were diluted 1:10 with 20% Cremophore RH40. […]

The next series relates to Her2. Put plainly: IC50 range for inhibition of Her2 degradation (Table 8). Conditions: Homo sapiens. It is filed as cell-based. The method, then: Human high-Her2 breast carcinoma BT474 (HTB-20), SK-BR-3 (HTB-30) and MCF-7 breast carcinoma (HTB-22) from American Type Culture Collection, VA, USA were grown in Dulbecco's modified Eagle's medium with 4 mM L-glutamine and antibiotics (100 IU/ml penicillin and 100 ug/ml streptomycine; GibcoBRL). To obtain exponential cell growth, cells were trypsinized, counted and seeded at a cell density of 0.5×10^6 cells/ml regularly, every 3 days. All experiments were performed on day 1 after cell passage. […]
After treatment with a compound of the invention, cells were washed twice with 1×PBS/1% FBS, and then stained with anti-Her2-FITC (#340553, BD) for 30 min at 4° C. Cells were then washed three times in FACS buffer before the fixation in 0.5 ml 1% paraformadehydrede. Data was acquired on a FACSCalibur system. Isotype-matched controls were used to establish the non-specific staining of samples and to set the fluorescent markers. A total 10,000 events were recorded from each sample. Data were analysed by using CellQuest software (BD Biosciences).

Structures are written as SMILES. “Also recorded” adds a separate entry of the source. Some results are limits rather than exact numbers.

In the case of `CC(C)c1cc(-c2nnc(O)n2-c2ccc3c(ccn3C)c2)c(O)cc1O` [Compound 226, 3-(2,4-dihydroxy-5-isopropyl-phenyl)-4-(1-methyl-indol-5-yl)-5-hydroxy-[1,2,4] triazole], the overt toxicity result in the series on Daudi (SCID mice) is reported as “not associated with overt toxicity; also recorded: Overt toxicity was not observed”; with SU-DHL-4 (50, 75 and 100 mg/kg i.v., 2 times per week, 4 doses, SCID mice), “not associated with overt toxicity; also recorded: Overt toxicity was not observed”. Further, the “% T/C value” is on record as 1.5% with Daudi (SCID mice, FIG. 5); 34.9% in the series on SU-DHL-4 (50 mg/kg i.v., 2 times per week, 4 doses, SCID mice); 8.1% with SU-DHL-4 (75 mg/kg i.v., 2 times per week, 4 doses, SCID mice); −10.4% with SU-DHL-4 (100 mg/kg i.v., 2 times per week, 4 doses, SCID mice). For the same compound, the “average bodyweight loss relative to the start of the study” value in the series on Daudi (day 41 / over the course of the study) was −1.0%; in the series with SU-DHL-4 (highest dose group 100 mg/kg i.v., 2 times per week, 4 doses, day 31), −4.2%. Further, the average bodyweight loss with SU-DHL-4 (over the course of the study, dose not stated (text on FIG. 6)) is −1.0%.

One may read the IC50 as the concentration that inhibits the measured activity by half. Regarding `CCc1cc(-c2nnc(S)n2-c2ccc(OC)c(N(CC)CC)c2)c(O)cc1O` [Compound 247, 4-(4-(3-(diethylamino)-4-methoxyphenyl)-5-mercapto-4H-1,2,4-triazol-3-yl)-6-ethylbenzene-1,3-diol], in the series on Her2, the IC50 was less than 3000 nM.

Take `CCCN(c1cc(-n2c(S)nnc2-c2cc(CC)c(O)cc2O)ccc1OC)C(C)C` [Compound 248, 4-(4-(3-(N-isopropyl-N-propylamino)-4-methoxyphenyl)-5-mercapto-4H-1,2,4-triazol-3-yl)-6-ethylbenzene-1,3-diol]: in the series with Her2, the IC50 is less than 3000 nM.

In the case of `CCc1cc(-c2nnc(S)n2-c2ccc(OC)c(N(C)C(C)C)c2)c(O)cc1O` [Compound 249, 4-(4-(3-(N-isopropyl-N-methylamino)-4-methoxyphenyl)-5-mercapto-4H-1,2,4-triazol-3-yl)-6-ethylbenzene-1,3-diol], the IC50 in the series with Her2 is less than 3000 nM.

Take `CCc1cc(-c2nnc(S)n2-c2ccc(OC)c(N(C)CC)c2)c(O)cc1O` [Compound 250, 4-(4-(3-(N-ethyl-N-methylamino)-4-methoxyphenyl)-5-mercapto-4H-1,2,4-triazol-3-yl)-6-ethylbenzene-1,3-diol]: the IC50 in the series with Her2 is less than 3000 nM.

Compound `CCc1cc(-c2nnc(S)n2-c2ccc(OC)c(N(C)C)c2)c(O)cc1O` [Compound 251, 4-(4-(3-(dimethylamino)-4-methoxyphenyl)-5-mercapto-4H-1,2,4-triazol-3-yl)-6-ethylbenzene-1,3-diol] had an IC50 in the series with Her2 of less than 3000 nM.

Consider `CCc1cc(-c2nnc(S)n2-c2cccc(N(C)C)c2)c(O)cc1O` [Compound 252, 4-(4-(3-(dimethylamino)phenyl)-5-mercapto-4H-1,2,4-triazol-3-yl)-6-ethylbenzene-1,3-diol], for which, in the series with Her2, the IC50 is less than 3000 nM.

`CCc1cc(-c2nnc(S)n2-c2ccc(N(C)C)c(OC)c2)c(O)cc1O` [Compound 259, 4-(4-(4-(dimethylamino)-3-methoxyphenyl)-5-mercapto-4H-1,2,4-triazol-3-yl)-6-ethylbenzene-1,3-diol] showed an IC50 with Her2 of less than 3000 nM.

`CCc1cc(-c2n[nH]c(O)c2-c2cccc3ccccc23)c(O)cc1O` [Compound 348, 4-(naphthalen-1-yl)-3-(5-ethyl-2,4-dihydroxy-phenyl)-5-hydroxy-2H-pyrazole] showed an IC50 in the series on Her2 of 10000 to 100000 nM.
